SMILES strings stand for the structures.

Results on five compounds are retold here after patent US20260207573A1, “EFFECT OF RIVOCERANIB ON CYTOCHROME P450 ENZYME SUBSTRATES” (ELEVAR THERAPEUTICS, INC., priority 2022, published 2026).

The test system of one data set is CYP3A4/5. Description: Example 1 pharmacokinetic interaction study, rivoceranib 200 mg + Cooperstown 5+1 cocktail: midazolam probe. Conditions: for AUC(0-t), Geometric Mean Ratio, (Cooperstown Cocktail + Rivoceranib)/Cooperstown Cocktail Alone / AUC(0-∞), Geometric Mean Ratio, (Cooperstown Cocktail + Rivoceranib)/Cooperstown Cocktail Alone / Cmax, Geometric Mean Ratio, (Cooperstown Cocktail + Rivoceranib)/Cooperstown Cocktail Alone: rivoceranib 200 mg daily, D11 vs D1.

A further data set relates to CYP3A. The data set can be described thus: Example 2 phase 1 drug-drug interaction study, rivoceranib 700 mg QD + 5+1 cocktail: midazolam probe. Further details: AUC(0-t), Mean (CV %), 5 + 1 cocktail alone / AUC(0-t), Geometric LSM, 5 + 1 cocktail alone / AUC(0-t), Mean (CV %), Rivoceranib plus 5 + 1 cocktail / AUC(0-t), Geometric LSM, Rivoceranib plus 5 + 1 cocktail / AUC(0-∞), Mean (CV %), 5 + 1 cocktail alone / AUC(0-∞), Geometric LSM, 5 + 1 cocktail alone / AUC(0-∞), Mean (CV %), Rivoceranib plus 5 + 1 cocktail / AUC(0-∞), Geometric LSM, Rivoceranib plus 5 + 1 cocktail: unit not given beside the values. Conditions: for AUC(0-t) / AUC(0-inf) / Cmax: human, in vivo; for AUC(0-t), Geometrical mean Ratio, % (90% CI) / AUC(0-∞), Geometrical mean Ratio, % (90% CI) / Cmax, Geometrical mean Ratio, % (90% CI): rivoceranib 700 mg QD, 100*LSM Rivoceranib Plus 5+1 Cocktail/LSM 5+1 Cocktail Alone. How it is done:
(§1) This example describes a pharmacokinetic interaction study in healthy human volunteers dosed with 700 mg rivoceranib and a mixture of cytochrome P450 enzyme (CYP1A2, CYP2C9, CYP2C19, CYP2D6, and CYP3A) substrates.
(§2) The primary objective of the study was to evaluate the effect of rivoceranib 700 mg once daily (QD) on the pharmacokinetics (PK) of various CYP substrates to determine drug-drug interactions of rivoceranib.
(§3) This was an open-label, 2-treatment, fixed-sequence drug-drug interaction phase 1 study designed to evaluated the impact of multiple oral doses of 700 mg rivoceranib on the single-dose PK of CYP enzyme substrates administered in a 5+1 Cooperstown probe cocktail (caffeine [CYP1A2], S- and R-warfarin [CYP2C9]+vitamin K, omeprazole [CYP2C19], dextromethorphan [CYP2D6], and midazolam [CYP3A]) in healthy volunteers (N=32). On day 1, volunteers received a single dose of the 5+1 cocktail comprising 200 mg caffeine, 10 mg S- and R-warfarin with 10 mg vitamin K, 40 mg omeprazole, 30 mg dextromethorphan, and 2 mg midazolam. Blood samples were collected pre-dose on day 1 and up to 120 hours post-dose for PK analyses of the substrates in the 5+1 cocktail. On days 6 to 15, volunteers received 700 mg rivoceranib once daily for 10 consecutive days with a single dose of the 5+1 cocktail administered on day 11. Blood samples were collected pre-dose on day 11 and up to 120 hours post cocktail dosing (day 16) for PK analyses. Each dosing was under fasted conditions. There was a washout period of 5 days between day 1 dosing and the first rivoceranib dose on day 6; the 2 cocktail dosings were spaced by 10 days.

The target of data set [1] is T1, CYP2D6 (Homo sapiens, UniProt P10635). Description: Example 2 phase 1 drug-drug interaction study, rivoceranib 700 mg QD + 5+1 cocktail: dextromethorphan probe. As to conditions: for AUC(0-t) / AUC(0-inf) / Cmax: human, in vivo, healthy volunteers; for AUC(0-t), Geometrical mean Ratio, % (90% CI) / AUC(0-∞), Geometrical mean Ratio, % (90% CI) / Cmax, Geometrical mean Ratio, % (90% CI): rivoceranib 700 mg QD, 100*LSM Rivoceranib Plus 5+1 Cocktail/LSM 5+1 Cocktail Alone. How it is done: as §1, §2, §3
T1 sequence (P10635 whole entry): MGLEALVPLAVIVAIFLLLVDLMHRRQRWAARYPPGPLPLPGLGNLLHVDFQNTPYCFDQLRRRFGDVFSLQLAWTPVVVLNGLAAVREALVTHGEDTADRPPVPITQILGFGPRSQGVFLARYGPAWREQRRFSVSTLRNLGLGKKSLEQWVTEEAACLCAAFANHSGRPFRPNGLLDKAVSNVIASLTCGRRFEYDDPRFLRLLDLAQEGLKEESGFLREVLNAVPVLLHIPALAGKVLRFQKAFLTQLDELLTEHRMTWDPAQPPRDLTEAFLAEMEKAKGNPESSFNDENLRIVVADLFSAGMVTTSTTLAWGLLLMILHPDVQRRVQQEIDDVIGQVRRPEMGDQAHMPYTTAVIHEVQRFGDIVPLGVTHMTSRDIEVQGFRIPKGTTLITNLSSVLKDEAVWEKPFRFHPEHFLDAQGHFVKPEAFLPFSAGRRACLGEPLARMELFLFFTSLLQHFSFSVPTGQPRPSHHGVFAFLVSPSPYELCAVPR

Data set [2] addresses T1, CYP2D6. The data set can be described thus: Example 1 pharmacokinetic interaction study, rivoceranib 200 mg + Cooperstown 5+1 cocktail: dextromethorphan probe. As to conditions: for AUC(0-t), Geometric Mean Ratio, (Cooperstown Cocktail + Rivoceranib)/Cooperstown Cocktail Alone / AUC(0-∞), Geometric Mean Ratio, (Cooperstown Cocktail + Rivoceranib)/Cooperstown Cocktail Alone / Cmax, Geometric Mean Ratio, (Cooperstown Cocktail + Rivoceranib)/Cooperstown Cocktail Alone: rivoceranib 200 mg daily, D11 vs D1.

The target in a further data set is CYP2C19 (Homo sapiens, UniProt P33261). Conditions: in vivo, po.
CYP2C19, sequence (P33261 whole entry): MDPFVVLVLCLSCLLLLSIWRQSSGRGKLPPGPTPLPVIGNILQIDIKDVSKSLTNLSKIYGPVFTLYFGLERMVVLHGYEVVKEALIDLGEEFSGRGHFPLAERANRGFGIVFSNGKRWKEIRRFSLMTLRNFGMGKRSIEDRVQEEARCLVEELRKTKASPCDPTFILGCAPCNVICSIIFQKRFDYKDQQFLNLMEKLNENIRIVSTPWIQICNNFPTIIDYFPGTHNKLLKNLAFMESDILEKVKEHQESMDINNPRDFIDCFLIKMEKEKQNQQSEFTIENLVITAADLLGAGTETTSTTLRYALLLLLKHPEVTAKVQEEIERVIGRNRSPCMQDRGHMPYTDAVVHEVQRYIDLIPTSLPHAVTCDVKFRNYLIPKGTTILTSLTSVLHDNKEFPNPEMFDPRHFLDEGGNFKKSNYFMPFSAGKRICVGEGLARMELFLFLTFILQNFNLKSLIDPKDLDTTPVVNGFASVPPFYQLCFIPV
Where [3] appears, read: rivoceranib 200 mg once daily, oral substrate.
The mark [4] stands for this setting: Geometric LSM, Rivoceranib plus 5 + 1 cocktail, healthy volunteers, 5+1 cocktail day 11 + rivoceranib 700 mg QD days 6-15.
Setting [5] is: Mean (CV %), Rivoceranib plus 5 + 1 cocktail, healthy volunteers, 5+1 cocktail day 11 + rivoceranib 700 mg QD days 6-15.
[6] abbreviates: po, 2 mg, Geometric LSM, 5 + 1 cocktail alone, healthy volunteers, single oral 5+1 cocktail dose day 1, fasted.
Where [7] appears, read: po, 2 mg, Mean (CV %), 5 + 1 cocktail alone, healthy volunteers, single oral 5+1 cocktail dose day 1, fasted.
Where [8] appears, read: Geometric LSM, Rivoceranib plus 5 + 1 cocktail, 5+1 cocktail day 11 + rivoceranib 700 mg QD days 6-15.
Setting [9] is: Mean (CV %), Rivoceranib plus 5 + 1 cocktail, 5+1 cocktail day 11 + rivoceranib 700 mg QD days 6-15.
Setting [10] is: po, Geometric LSM, 5 + 1 cocktail alone, single oral 5+1 cocktail dose day 1, fasted.
Setting [11] is: po, Mean (CV %), 5 + 1 cocktail alone, single oral 5+1 cocktail dose day 1, fasted.
Where [12] appears, read: healthy volunteers, 5+1 cocktail day 11 + rivoceranib 700 mg QD days 6-15.
[13] abbreviates: healthy volunteers, single oral 5+1 cocktail dose day 1, fasted.

`Cc1ncc2n1-c1ccc(Cl)cc1C(c1ccccc1F)=NC2` [midazolam]: in the data set on CYP3A4/5, the “AUC(0-t), Geometric Mean Ratio, (Cooperstown Cocktail + Rivoceranib)/Cooperstown Cocktail Alone” value (“AUC(0-t), Geometric Mean Ratio” below) is reported as 1.5573; the “AUC(0-∞), Geometric Mean Ratio, (Cooperstown Cocktail + Rivoceranib)/Cooperstown Cocktail Alone” value (from here on “AUC(0-∞), Geometric Mean Ratio”) came to 1.4451; the “Cmax, Geometric Mean Ratio, (Cooperstown Cocktail + Rivoceranib)/Cooperstown Cocktail Alone” value (shortened to “Cmax, Geometric Mean Ratio”) is listed as 1.1509. Moreover, in the data set on CYP3A4/5 (setting [3]), the “increase in AUC0-∞ following coadministration with rivoceranib” value was determined as 65% and the “increase in Cmax following coadministration with rivoceranib” value amounted to 16%. In the data set on CYP3A (setting [4]), the AUC(0-t) stood at 75.2 ng·h/mL, the AUC(0-inf) came to 82.1 ng·h/mL and the Cmax is 25.7 ng/mL. In the data set on CYP3A (setting [5]), the AUC(0-t) turned out to be 75.5 ng·h/mL, the AUC(0-inf) turned out to be 82.5 ng·h/mL and the Cmax was 25.7 ng/mL. In the data set on CYP3A (setting [6]), the AUC(0-t) is 28.1 ng·h/mL, the AUC(0-inf) came to 29.7 ng·h/mL and the peak concentration (Cmax) worked out at 10.8 ng/mL. Also, in the data set with CYP3A (setting [7]), the AUC(0-t) is 28.1 ng·h/mL, the AUC(0-inf) was 29.7 ng·h/mL and the Cmax worked out at 10.8 ng/mL. For the same compound, the “increase in exposure following coadministration with rivoceranib” value in the data set with CYP3A (rivoceranib 700 mg) is recorded as 2.4- to 2.8 fold. In addition, in the data set on CYP3A, the “AUC(0-t), Geometrical mean Ratio, % (90% CI)” value is 267.59%; the “AUC(0-∞), Geometrical mean Ratio, % (90% CI)” value came out at 276.27%; the “Cmax, Geometrical mean Ratio, % (90% CI)” value worked out at 237.88%.

`CN1CC[C@@]23CCCC[C@@H]2[C@@H]1Cc1ccc(O)cc13` [dextrorphan]: on CYP2D6 [1] (setting [8]), the AUC(0-t) was 33.7 ng·h/mL, the AUC(0-inf) worked out at 37.1 ng·h/mL and the Cmax turned out to be 4.74 ng/mL. In addition, at CYP2D6 [1] (setting [9]), the AUC(0-t) turned out to be 34.5 ng·h/mL, the AUC(0-inf) was found to be 37.8 ng·h/mL and the Cmax was 4.88 ng/mL. In addition, on CYP2D6 [1] (setting [10]), the AUC(0-t) is 26.1 ng·h/mL, the AUC(0-inf) was 27.9 ng·h/mL and the Cmax was 4.66 ng/mL. On CYP2D6 [1] (setting [11]), the AUC(0-t) stood at 26.1 ng·h/mL, the AUC(0-inf) came to 27.9 ng·h/mL and the Cmax worked out at 4.66 ng/mL. On CYP2D6 [1], the “AUC(0-t), Geometrical mean Ratio, % (90% CI)” value stood at 129.07%; the “AUC(0-∞), Geometrical mean Ratio, % (90% CI)” value came out at 133.22%; the “Cmax, Geometrical mean Ratio, % (90% CI)” value came out at 101.70%. On CYP2D6 [2], the “AUC(0-t), Geometric Mean Ratio” value is recorded as 1.1509; the “AUC(0-∞), Geometric Mean Ratio” value is reported as 1.1104; the “Cmax, Geometric Mean Ratio” value is listed as 0.8950.

Regarding `COc1ccc2c(c1)[C@]13CCCC[C@@H]1[C@H](C2)N(C)CC3` [dextromethorphan], at CYP2D6 [1] (setting [8]), the AUC(0-t) came out at 27.1 ng·h/mL, the AUC(0-inf) was 36.2 ng·h/mL and the Cmax was 2.78 ng/mL. Moreover, on CYP2D6 [1] (setting [9]), the AUC(0-t) was 23.7 ng·h/mL, the AUC(0-inf) was 33.2 ng·h/mL and the Cmax stood at 2.53 ng/mL. Moreover, on CYP2D6 [1] (setting [10]), the AUC(0-t) turned out to be 10.4 ng·h/mL, the AUC(0-inf) is 13.3 ng·h/mL and the Cmax is 1.4 ng/mL. Besides, at CYP2D6 [1] (setting [11]), the AUC(0-t) came to 10.4 ng·h/mL, the AUC(0-inf) was determined as 14 ng·h/mL and the Cmax was 1.4 ng/mL. Also, at CYP2D6 [1] (rivoceranib 700 mg), the “increase in exposure with rivoceranib” value is 2- to 2.7 fold. Besides, at CYP2D6 [1], the “AUC(0-t), Geometrical mean Ratio, % (90% CI)” value stood at 259.87%; the “AUC(0-∞), Geometrical mean Ratio, % (90% CI)” value was found to be 272.50%; the “Cmax, Geometrical mean Ratio, % (90% CI)” value stood at 198.80%. On CYP2D6 [2], the “AUC(0-t), Geometric Mean Ratio” value was 2.5448; the “AUC(0-∞), Geometric Mean Ratio” value is 2.6650; the “Cmax, Geometric Mean Ratio” value is 1.9039. Besides, at CYP2D6 [2] (setting [3]), the “increase in AUC0-∞ on coadministration of rivoceranib relative to Cooperstown 5+1 cocktail only” value is recorded as 144% and the “increase in Cmax on coadministration of rivoceranib relative to Cooperstown 5+1 cocktail only” value is 70%.

Consider `OCc1ncc2n1-c1ccc(Cl)cc1C(c1ccccc1F)=NC2` [1-hydroxymidazolam], for which, in the data set with CYP3A4/5, the “AUC(0-t), Geometric Mean Ratio” value is 1.2627; the “AUC(0-∞), Geometric Mean Ratio” value was found to be 1.1355; the “Cmax, Geometric Mean Ratio” value came to 0.8913. In the data set on CYP3A (setting [12]), the “AUC(0-t), Geometric LSM, Rivoceranib plus 5 + 1 cocktail” value was 13.89; the “AUC(0-t), Mean (CV %), Rivoceranib plus 5 + 1 cocktail” value was determined as 14.37; the “AUC(0-∞), Geometric LSM, Rivoceranib plus 5 + 1 cocktail” value worked out at 15.16; the “AUC(0-∞), Mean (CV %), Rivoceranib plus 5 + 1 cocktail” value was found to be 15.67. For the same compound, in the data set with CYP3A (setting [12]), the “Cmax, Geometric LSM, Rivoceranib plus 5 + 1 cocktail” value is reported as 4.639 ng/mL and the “Cmax, Mean (CV %), Rivoceranib plus 5 + 1 cocktail” value was 4.797 ng/mL. In the data set on CYP3A (setting [13]), the “AUC(0-t), Geometric LSM, 5 + 1 cocktail alone” value amounted to 9.643; the “AUC(0-t), Mean (CV %), 5 + 1 cocktail alone” value came to 9.643; the “AUC(0-∞), Geometric LSM, 5 + 1 cocktail alone” value came out at 10.21; the “AUC(0-∞), Mean (CV %), 5 + 1 cocktail alone” value was found to be 10.18. Moreover, in the data set with CYP3A (setting [13]), the “Cmax, Geometric LSM, 5 + 1 cocktail alone” value is recorded as 4.115 ng/mL and the “Cmax, Mean (CV %), 5 + 1 cocktail alone” value was found to be 4.115 ng/mL. In the data set on CYP3A, the “AUC(0-t), Geometrical mean Ratio, % (90% CI)” value was found to be 144.05%; the “AUC(0-∞), Geometrical mean Ratio, % (90% CI)” value worked out at 148.48%; the “Cmax, Geometrical mean Ratio, % (90% CI)” value came to 112.73%.

As to `COc1ccc2nc([S+]([O-])Cc3ncc(CO)c(OC)c3C)[nH]c2c1` (stereo not drawn) [5-hydroxyomeprazole], on CYP2C19, the “AUC(0-t), Geometric LS Mean, Cooperstown Cocktail Alone” value came to 6.6476; the “AUC(0-∞), Geometric LS Mean, Cooperstown Cocktail Alone” value was found to be 6.6678; the “Cmax, Geometric LS Mean, Cooperstown Cocktail Alone” value is recorded as 5.3867.
